Measurements taken from ChEMBL document CHEMBL3870338, “Microwave assisted synthesis of novel tetrazole/sulfonamide derivatives based on octahydroacridine, xanthene and chromene skeletons as inhibitors of the carbonic anhydrases isoforms I, II, IV and VII” (Bioorg Med Chem Lett, 2017).

Key:
Carbonic anhydrase 2 = Carbonic anhydrase 2 (Homo sapiens, UniProt P00918); experiment: Inhibition of human recombinant carbonic anhydrase 2 expressed in Escherichia coli assessed as reduction in CO2 hydration preincubated for 15 mins prior to testing measured for 10 to 100 secs by stopped-flow assay
Carbonic anhydrase 1 = Carbonic anhydrase 1 (Homo sapiens, UniProt P00915); experiment: Inhibition of human recombinant carbonic anhydrase 1 expressed in Escherichia coli assessed as reduction in CO2 hydration preincubated for 15 mins prior to testing measured for 10 to 100 secs by stopped-flow assay
Carbonic anhydrase 7 = Carbonic anhydrase 7 (Homo sapiens, UniProt P43166); experiment: Inhibition of human recombinant carbonic anhydrase 7 expressed in Escherichia coli assessed as reduction in CO2 hydration preincubated for 15 mins prior to testing measured for 10 to 100 secs by stopped-flow assay
Carbonic anhydrase 4 = Carbonic anhydrase 4 (Homo sapiens, UniProt P22748); experiment: Inhibition of human recombinant carbonic anhydrase 4 expressed in Escherichia coli assessed as reduction in CO2 hydration preincubated for 15 mins prior to testing measured for 10 to 100 secs by stopped-flow assay

Measured: Ki

Chain of Carbonic anhydrase 7 (P43166 whole entry): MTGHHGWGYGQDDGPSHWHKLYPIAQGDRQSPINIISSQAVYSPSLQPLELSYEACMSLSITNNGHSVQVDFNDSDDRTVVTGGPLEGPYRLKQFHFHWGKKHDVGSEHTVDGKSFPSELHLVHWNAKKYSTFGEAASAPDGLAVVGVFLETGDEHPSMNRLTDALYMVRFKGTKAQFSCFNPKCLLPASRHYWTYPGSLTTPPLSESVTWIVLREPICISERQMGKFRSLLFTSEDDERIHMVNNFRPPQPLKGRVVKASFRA
Chain of Carbonic anhydrase 1 (P00915 whole entry): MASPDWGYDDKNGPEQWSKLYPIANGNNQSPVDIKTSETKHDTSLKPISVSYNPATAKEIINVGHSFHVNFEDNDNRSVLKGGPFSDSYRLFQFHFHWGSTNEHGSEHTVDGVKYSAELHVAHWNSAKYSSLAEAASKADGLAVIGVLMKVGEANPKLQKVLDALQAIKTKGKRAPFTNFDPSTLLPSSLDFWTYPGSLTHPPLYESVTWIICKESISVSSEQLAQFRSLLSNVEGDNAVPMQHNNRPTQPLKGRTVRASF
Chain of Carbonic anhydrase 4 (P22748 whole entry): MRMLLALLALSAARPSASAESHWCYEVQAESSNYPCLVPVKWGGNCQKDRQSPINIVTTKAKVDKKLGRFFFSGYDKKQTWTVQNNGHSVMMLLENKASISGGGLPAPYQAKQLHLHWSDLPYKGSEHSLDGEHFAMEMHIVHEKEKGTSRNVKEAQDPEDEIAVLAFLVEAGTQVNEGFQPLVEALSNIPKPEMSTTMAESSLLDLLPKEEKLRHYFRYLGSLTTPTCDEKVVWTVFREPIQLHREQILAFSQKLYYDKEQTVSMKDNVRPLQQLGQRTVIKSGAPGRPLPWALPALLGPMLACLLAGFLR

O=C1CCCC2=C1C(c1cccc(-c3nnn[nH]3)c1)C1=C(CCCC1=O)O2
> 10 µM: all assays above

O=Cc1cccc(-c2nnn[nH]2)c1
> 10 µM: all assays above

CC1(C)CC(=O)C2=C(C1)OC1=C(C(=O)CC(C)(C)C1)C2c1ccc(-c2nnn[nH]2)cc1
> 10 µM: all assays above

O=C1CCCC2=C1C(c1ccc(-c3nnn[nH]3)cc1)C1=C(CCCC1=O)O2
> 10 µM: all assays above

N#CC1=C(N)OC2=C(C(=O)CCC2)C1c1ccc(-c2nnn[nH]2)cc1 (stereo not given)
> 10 µM: all assays above

N#CC1=C(N)OC2=C(C(=O)CCC2)C1c1cccc(-c2nnn[nH]2)c1 (stereo not given)
> 10 µM: all assays above

CC1(C)CC(=O)C2=C(C1)OC(N)=C(C#N)C2c1cccc(-c2nnn[nH]2)c1 (stereo not given)
> 10 µM: all assays above

O=Cc1ccc(-c2nnn[nH]2)cc1
> 10 µM: all assays above

CC1(C)CC(=O)C2=C(C1)OC1=C(C(=O)CC(C)(C)C1)C2c1cccc(-c2nnn[nH]2)c1
> 10 µM: all assays above

CC1(C)CC(=O)C2=C(C1)OC(N)=C(C#N)C2c1ccc(-c2nnn[nH]2)cc1 (stereo not given)
> 10 µM: all assays above
